This is an account of results in patent US20260015325A1, “ALKOXY HETEROARYL- CARBOXAMIDE OR THIOAMIDE COMPOUNDS” (SYNGENTA CROP PROTECTION AG, priority 2022, published 2026).

One experiment has as its system Myzus persicae (Green Peach Aphid). The experiment is described as follows: Myzus persicae (Green Peach Aphid): feeding/contact activity, sunflower leaf discs. Conditions: foliar, 144 h, application rate of 200 ppm, mixed ages on sprayed sunflower leaf discs, 6 days after infestation, read-out: mortality. The format is in vivo. As to the method:
Example B6: Myzus persicae (Green Peach Aphid): Feeding/Contact Activity
Sunflower leaf discs were placed onto agar in a 24-well microtiter plate and sprayed with aqueous test solutions prepared from 10′000 ppm DMSO stock solutions. After drying, the leaf discs were infested with an aphid population of mixed ages. The samples were assessed for mortality 6 days after infestation.
Turning to `Cc1ncc(OC[C@H](C)NS(=O)(=O)C(F)(F)F)cc1C(=O)NCc1ncccc1Cl` [Compound P-32, N-[(3-chloro-2-pyridyl)methyl]-2-methyl-5-[(2S)-2-(trifluoromethylsulfonylamino)propoxy]pyridine-3-carboxamide], the mortality at 200 ppm was no less than 80%. The same measure, in the same setting: the result for `CCN1OC[C@H](NC(=O)c2cc(OC[C@H](C)NS(=O)(=O)C(F)(F)F)cnc2Cl)C1=O` [Compound P-49, 2-chloro-N-[(4S)-2-ethyl-3-oxo-isoxazolidin-4-yl]-5-[(2S)-2-(trifluoromethylsulfonylamino)propoxy]pyridine-3-carboxamide] reads no less than 80%.

The test system of the next experiment is Tetranychus urticae (Two-Spotted Spider Mite). The experiment is described as follows: whole plant or invertebrate. The format is in vivo. The settings on record: foliar, 192 h, application rate of 200 ppm, mixed population (mobile stages) on sprayed bean leaf discs, 8 days after infestation, read-out: mortality. As for the experimental part:
Example B11: Tetranychus urticae (Two-Spotted Spider Mite): Feeding/Contact Activity
Bean leaf discs on agar in 24-well microtiter plates were sprayed with aqueous test solutions prepared from 10′000 ppm DMSO stock solutions. After drying the leaf discs were infested with a mite population of mixed ages. The samples were assessed for mortality on mixed population (mobile stages) 8 days after infestation.
For `C[C@@H](COc1cnc(Cl)c(C(=O)Nc2ncc(C#N)cc2F)c1)NS(=O)(=O)C(F)(F)F` [Compound P-18, 2-chloro-N-(5-cyano-3-fluoro-2-pyridyl)-5-[(2S)-2-(trifluoromethylsulfonylamino)propoxy]pyridine-3-carboxamide], the mortality at 200 ppm is no less than 80%.

Consider `C[C@@H](COc1cnc(Cl)c(C(=O)Nc2ccc(S(C)(=O)=O)cc2F)c1)NS(=O)(=O)C(F)(F)F` [Compound P-24, 2-chloro-N-(2-fluoro-4-methylsulfonyl-phenyl)-5-[(2S)-2-(trifluoromethylsulfonylamino)propoxy]pyridine-3-carboxamide], for which the mortality at 200 ppm was no less than 80%. Regarding `Cc1ncc(OC[C@H](C)NS(=O)(=O)C(F)(F)F)cc1C(=O)NCc1ncccc1Cl` [Compound P-32, N-[(3-chloro-2-pyridyl)methyl]-2-methyl-5-[(2S)-2-(trifluoromethylsulfonylamino)propoxy]pyridine-3-carboxamide], the mortality at 200 ppm is no less than 80%. `Cc1ncc(OC[C@H](C)NS(=O)(=O)C(F)(F)F)cc1C(=O)Nc1ccc(F)cc1F` [Compound P-33, N-(2,4-difluorophenyl)-2-methyl-5-[(2S)-2-(trifluoromethylsulfonylamino)propoxy]pyridine-3-carboxamide]: the mortality at 200 ppm was no less than 80%. In the case of `Cc1ncc(OC[C@H](C)NS(=O)(=O)C(F)(F)F)cc1C(=O)NC1CC(F)(F)C1` [Compound P-37, N-(3,3-difluorocyclobutyl)-2-methyl-5-[(2S)-2-(trifluoromethylsulfonylamino)propoxy]pyridine-3-carboxamide], the mortality at 200 ppm was no less than 80%. Still for that read-out and setting: the result for `Cc1ncc(OC[C@H](C)NS(=O)(=O)C(F)(F)F)cc1C(=O)NCC(F)F` [Compound P-39, N-(2,2-difluoroethyl)-2-methyl-5-[(2S)-2-(trifluoromethylsulfonylamino)propoxy]pyridine-3-carboxamide] reads no less than 80%; that for `C[C@@H](COc1cnc(Cl)c(C(=O)NCc2ccccc2)c1)NS(=O)(=O)C(F)(F)F` [Compound P-44, N-benzyl-2-chloro-5-[(2S)-2-(trifluoromethylsulfonylamino)propoxy]pyridine-3-carboxamide], no less than 80%; that for `CCN1OC[C@H](NC(=O)c2cc(OC[C@H](C)NS(=O)(=O)C(F)(F)F)cnc2Cl)C1=O` [Compound P-49, 2-chloro-N-[(4S)-2-ethyl-3-oxo-isoxazolidin-4-yl]-5-[(2S)-2-(trifluoromethylsulfonylamino)propoxy]pyridine-3-carboxamide], no less than 80%. On the same count and under the same terms, with `C[C@@H](COc1cnc(Cl)c(C(=O)NC2(C)CCOC2)c1)NS(=O)(=O)C(F)(F)F` (stereo partly drawn) [Compound P-51, 2-chloro-N-(3-methyltetrahydrofuran-3-yl)-5-[(2S)-2-(trifluoromethylsulfonylamino)propoxy]pyridine-3-carboxamide] the figure was no less than 80%; with `Cc1cnc(OC[C@H](C)NS(=O)(=O)C(F)(F)F)cc1C(=O)NCc1ccccc1` [Compound P-77, N-benzyl-5-methyl-2-[(2S)-2-(trifluoromethylsulfonylamino)propoxy]pyridine-4-carboxamide], no less than 80%. In the case of `COCN([C@@H](C)COc1cc(C(=O)NC2(C#N)CC2)c(C)cn1)S(=O)(=O)C(F)(F)F` [Compound P-79, N-(1-cyanocyclopropyl)-2-[(2S)-2-[methoxymethyl(trifluoromethylsulfonyl)amino]propoxy]-5-methyl-pyridine-4-carboxamide], the mortality at 200 ppm was no less than 80%.

As to `Cc1cnc(OC[C@H](C)NS(=O)(=O)C(F)(F)F)cc1C(=O)NCC(F)(F)F` [Compound P-80, 5-methyl-N-(2,2,2-trifluoroethyl)-2-[(2S)-2-(trifluoromethylsulfonylamino)propoxy]pyridine-4-carboxamide], the mortality at 200 ppm was no less than 80%.

What is called mortality is the share of the test organisms that died.
